Legend:
Format in all cases: cell-based
[1] = biological target: T1, 5-hydroxytryptamine receptor 2A (Homo sapiens, UniProt P28223); assay: Modulation of human 5HT2A expressed in HEK293T cells co-transfected with Galphaq-RLuc8, Ggamma1-GFP2 and Gbeta1 assessed as dissociation of Galphaq from Ggamma1 preincubated for 1 hr followed by addition of coelenterazine 400a substrate and measured after 15 mins by BRET assay
[2] = biological target: T2, 5-hydroxytryptamine receptor 2C (Homo sapiens, UniProt P28335); assay: Modulation of human 5HT2C expressed in HEK293T cells co-transfected with Galphaq-RLuc8, Ggamma1-GFP2 and Gbeta1 assessed as dissociation of Galphaq from Ggamma1 preincubated for 1 hr followed by addition of coelenterazine 400a substrate and measured after 15 mins by BRET assay
T2 sequence (P28335 whole entry): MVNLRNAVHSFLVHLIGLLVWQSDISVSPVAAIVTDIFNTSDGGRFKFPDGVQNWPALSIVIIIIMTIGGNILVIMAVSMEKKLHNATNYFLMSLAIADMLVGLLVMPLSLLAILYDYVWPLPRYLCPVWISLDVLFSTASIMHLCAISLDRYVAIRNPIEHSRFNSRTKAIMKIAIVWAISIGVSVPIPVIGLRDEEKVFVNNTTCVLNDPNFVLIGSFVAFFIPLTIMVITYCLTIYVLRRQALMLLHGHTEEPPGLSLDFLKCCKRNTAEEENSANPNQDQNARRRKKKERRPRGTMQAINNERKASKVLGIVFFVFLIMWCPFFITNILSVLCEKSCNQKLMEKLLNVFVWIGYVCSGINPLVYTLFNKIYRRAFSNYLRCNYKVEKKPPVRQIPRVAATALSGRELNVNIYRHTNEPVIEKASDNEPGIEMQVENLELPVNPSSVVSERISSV

[3] = biological target: T3, 5-hydroxytryptamine receptor 2B (Homo sapiens, UniProt P41595); assay: Modulation of human 5HT2B expressed in HEK293T cells co-transfected with Galphaq-RLuc8, Ggamma1-GFP2 and Gbeta1 assessed as dissociation of Galphaq from Ggamma1 preincubated for 1 hr followed by addition of coelenterazine 400a substrate and measured after 15 mins by BRET assay
[4] = biological target: T1, 5-hydroxytryptamine receptor 2A; assay: Modulation of human 5HT2A expressed in HEK293T cells co-transfected with Galphaq-RLuc8, Ggamma1-GFP2 and Gbeta1 assessed as dissociation of Galphaq from Ggamma1 preincubated for 1 hr followed by addition of coelenterazine 400a substrate and measured after 15 mins by BRET assay relative to 5-HT; conditions: filed as modulator, time 75.0 min
[5] = biological target: T3, 5-hydroxytryptamine receptor 2B; assay: Modulation of human 5HT2B expressed in HEK293T cells co-transfected with Galphaq-RLuc8, Ggamma1-GFP2 and Gbeta1 assessed as dissociation of Galphaq from Ggamma1 preincubated for 1 hr followed by addition of coelenterazine 400a substrate and measured after 15 mins by BRET assay relative to 5-HT; conditions: time 75.0 min

T1 sequence (P28223 whole entry): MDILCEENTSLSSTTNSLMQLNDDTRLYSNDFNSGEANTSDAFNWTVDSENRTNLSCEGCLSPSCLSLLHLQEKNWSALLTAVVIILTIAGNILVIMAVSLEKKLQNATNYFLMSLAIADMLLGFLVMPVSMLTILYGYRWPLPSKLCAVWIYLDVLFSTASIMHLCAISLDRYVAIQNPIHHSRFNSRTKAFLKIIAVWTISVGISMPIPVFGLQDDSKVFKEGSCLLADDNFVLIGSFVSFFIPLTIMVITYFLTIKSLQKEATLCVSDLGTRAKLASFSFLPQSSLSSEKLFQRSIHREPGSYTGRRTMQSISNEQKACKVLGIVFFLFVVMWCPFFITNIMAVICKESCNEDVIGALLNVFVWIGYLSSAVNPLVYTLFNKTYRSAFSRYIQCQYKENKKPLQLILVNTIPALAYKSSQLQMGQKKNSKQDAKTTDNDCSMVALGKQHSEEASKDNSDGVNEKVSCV
T3 sequence (P41595 whole entry): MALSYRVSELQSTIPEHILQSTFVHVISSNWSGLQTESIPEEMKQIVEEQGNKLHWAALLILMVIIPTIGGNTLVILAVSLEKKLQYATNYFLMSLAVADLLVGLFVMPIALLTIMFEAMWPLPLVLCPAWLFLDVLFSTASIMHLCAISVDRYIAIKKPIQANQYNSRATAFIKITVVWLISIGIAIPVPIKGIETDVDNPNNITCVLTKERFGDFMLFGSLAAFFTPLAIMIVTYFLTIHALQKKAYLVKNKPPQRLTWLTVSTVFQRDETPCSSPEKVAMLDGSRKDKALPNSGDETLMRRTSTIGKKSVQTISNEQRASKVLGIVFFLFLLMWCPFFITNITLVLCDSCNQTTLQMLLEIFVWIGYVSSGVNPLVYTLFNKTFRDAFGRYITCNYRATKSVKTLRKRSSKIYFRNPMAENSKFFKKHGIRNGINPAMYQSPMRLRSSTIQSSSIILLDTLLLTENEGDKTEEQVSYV

SMILES: CCn1cc(CCN(C)C)c2c(O)cccc21
- IC50 [1]: 0.196 µM
- IC50 [2]: 0.0009 µM
- IC50 ([3]; hek293t): Not Active
- Efficacy [4]: 65%

SMILES: CN(C)CCc1c[nH]c2cccc(O)c12
- Efficacy ([5]; filed as modulator): 63%
- Efficacy [4]: 82%

SMILES: CN(C)CCc1cn(C)c2cccc(O)c12
- IC50 [1]: 0.0863 µM
- IC50 [2]: 0.00951 µM
- Efficacy ([5]; filed as modulator): 40%
- IC50 ([3]; read-out: IC50): 0.0317 µM
- Efficacy [4]: 73%

SMILES: CCN(C)CCc1cn(C)c2cccc(O)c12
- Efficacy ([5]; filed as modulator): 44%
- Efficacy [4]: 66%

SMILES: CN(CCc1cn(C)c2cccc(O)c12)CC1CC1
- Efficacy [5]: 19%
- Efficacy [4]: 55%

SMILES: CC(C)N(C)CCc1cn(C)c2cccc(O)c12
- Efficacy ([5]; filed as modulator): 83%
- Efficacy [4]: 85%

SMILES: CN(C)CCc1cn(CC2CC2)c2cccc(O)c12
- IC50 ([3]; hek293t): Not Active
- Efficacy [4]: 29%

SMILES: CN(C)CCc1cn(CCF)c2cccc(O)c12
- IC50 [1]: 0.188 µM
- IC50 [2]: 0.0027 µM
- IC50 ([3]; hek293t): Not Active
- Efficacy [4]: 48%

Reference: ChEMBL document CHEMBL5055687, “Improved 5-HT2 Selective Receptor Modulators for the Treatment of Psychological Disorders” (ACS Med Chem Lett, 2021)
